Structures can show the parent of a compound that is named as a salt. Where two headings read alike, the source gives them in different places.
Assays:
serum lipoproteins = test: Effect on serum lipoproteins of normolipemic male rats in a subchronic experiment; type: in vivo; settings: Rattus norvegicus, po, by stomach tube, 7 administrations; for change in vivo at 3 mg/kg: 3 mg/kg/day; for change in vivo at 10 mg/kg: 10 mg/kg/day; for change in vivo at 30 mg/kg: 30 mg/kg/day
Procedure: 3. In vivo, the increased LDL receptor activity in experimental animals is reflected by reduction in the lipoprotein fractions which can be metabolized by the LDL receptor (apoB/E receptor), i.e. a reduction in the LDL and VLDL levels is observed. The following test was carried out:
Effect on serum lipoproteins of normolipemic male rats in a subchronic experiment
Groups of in each case 10 male rats of the HOE: WISKf (SPF 71) strain with an initial weight above 180 g received once a day (in the morning) the test product or the comparison product in 1% aqueous ®Tylose MH 300 solution by stomach tube (0.5 ml/100 g of body weight); the control group in each case received only the vehicle. The last (7th) administration took place 24 hours before removal of blood and sacrifice. There was free access to food and water during the test. The food was withdrawn 24 hours before the removal of blood.
The serum from all 10 rats in a group was pooled for the analysis of the serum lipoproteins. The serum lipoproteins were separated with a preparative ultracentrifuge (KONTRON TGA 65, Rotor BECKMAN 50.4 Ti).
The following conditions specified by Koga, S., Horwitz, D. L., and Scanu, A. M., Journal of Lipid Research 10, 577 (1969) and Havel, R. J., Eder, H. A., and Bragdon, H. H., J. Clin. Invest. 34, 1345 (1955) were used to separate VLDL and LDL: 1. VLDL: Density<1.006, 40,000 rpm for 16 hours 2. LDL: Density 1.006-1.04, 40,000 rmp for 16 hours
Test kits from BOEHRINGER/Mannheim were used for the enzymatic determination of cholesterol and triglycerides in the separated lipoprotein fractions (cf. Siedel, J., Schlumberger, H., Klose, S., Ziegenhorn, J. and Wahlefeld, A. W., J. Clin. Chem. Clin. Biochem. 19, 838 (1981) and Wahlefeld, A. W., in: H. O. Bergmeier: Methoden der enzymatischen Analyse (Methods of Enzymatic Analysis), 2nd edition, Volume II, Verlag Chemie 1974, page 1878). The proteins were determined by the method of Lowry (Lowry, O. H., Roseborough, N. H., Farr, A. L. and Randell, R. J., J. Biol. Chem. 193, 265 (1951)).
Clofibrate was used as comparison product.

[1] = Solubility in water of salts (and free bases); type: physicochemical; settings: for solubility: water
[2] = read-out: Serum LDL cholesterol, % change from control at end of treatment
[3] = read-out: Serum LDL protein, % change from control at end of treatment
[4] = read-out: Serum VLDL cholesterol, % change from control at end of treatment
[5] = read-out: Serum VLDL protein, % change from control at end of treatment
[6] = read-out: Serum VLDL triglycerides, % change from control at end of treatment
[7] = Table 2, salts of compounds I, temp. by No. [°C]: 1 25.5, 2 23.0, 3 22.4, 4 22.4, 5 22.0, 6 25.0, 7 25.5, 8 25.5, 9 25.5, 10 23.5, 11 23.5, 12 25.0, 13 24.0, 14 23.0, 15 22.0, 16 24.5, 17 22.5, 18 22.0
[8] = Table 2, salts of compounds I, temp. by No. [°C]: 1 25.5, 2 23.0, 3 22.4, 4 22.4, 5 22.0, 6 25.0, 7 25.5, 8 25.5, 9 25.5, 10 23.5, 11 23.5, 12 25.0, 13 24.0, 14 23.0, 15 22.0, 16 24.5, 17 22.5, 18 22.0, read-out: Solubility in water, Concentration in % by wt.
[9] = Table 1, N-H analogs, temp. by No. [°C]: 1 25.0, 2 23.0, 3 26.2, 4 25.1, 5 25.2, 6 24.1, 7 24.5, 8 24.2, 9 24.2, 10 25.7, 11 25.8, read-out: Solubility in water, Concentration in % by wt.
[10] = Table 1, N-H analogs, temp. by No. [°C]: 1 25.0, 2 23.0, 3 26.2, 4 25.1, 5 25.2, 6 24.1, 7 24.5, 8 24.2, 9 24.2, 10 25.7, 11 25.8, read-out: Solubility in water, Molarity × 10^-3
[11] = Table 1, N-H analogs, temp. by No. [°C]: 1 25.0, 2 23.0, 3 26.2, 4 25.1, 5 25.2, 6 24.1, 7 24.5, 8 24.2, 9 24.2, 10 25.7, 11 25.8
[12] = Table 2, salts of compounds I, temp. by No. [°C]: 1 25.5, 2 23.0, 3 22.4, 4 22.4, 5 22.0, 6 25.0, 7 25.5, 8 25.5, 9 25.5, 10 23.5, 11 23.5, 12 25.0, 13 24.0, 14 23.0, 15 22.0, 16 24.5, 17 22.5, 18 22.0, nitrate

SMILES: CN(C(=O)c1cnc(N2CC(C)(C)NC2=O)nc1N)c1cc(C(F)(F)F)ccc1F [Example 28]
- change in vivo at 3 mg/kg (serum lipoproteins; [2]): 1%
- change in vivo at 3 mg/kg (serum lipoproteins; [3]): -26%
- change in vivo at 3 mg/kg (serum lipoproteins; [4]): -2%
- change in vivo at 3 mg/kg (serum lipoproteins; [5]): -29%
- change in vivo at 10 mg/kg (serum lipoproteins; [2]): -33%
- change in vivo at 10 mg/kg (serum lipoproteins; [3]): -68%
- change in vivo at 10 mg/kg (serum lipoproteins; [4]): -74%
- change in vivo at 10 mg/kg (serum lipoproteins; [5]): 41%
- change in vivo at 10 mg/kg (serum lipoproteins; [6]): 46%
- change in vivo at 30 mg/kg (serum lipoproteins; [2]): -75%
- change in vivo at 30 mg/kg (serum lipoproteins; [3]): -62%
- change in vivo at 30 mg/kg (serum lipoproteins; [4]): -79%
- change in vivo at 30 mg/kg (serum lipoproteins; [5]): -49%
- change in vivo at 30 mg/kg (serum lipoproteins; [6]): -56%
- 1 part by mass dissolves in ... parts by H2O [1, 7]: 72.7 parts by H2 O
- solubility [1, 8]: 13.6 mg/mL

SMILES: CCN(C(=O)c1cnc(N2CC(C)(C)NC2=O)nc1N)c1cc(C(F)(F)F)ccc1F [Example 32]
- change in vivo at 10 mg/kg (serum lipoproteins; [2]): -54%
- change in vivo at 10 mg/kg (serum lipoproteins; [3]): -36%
- change in vivo at 10 mg/kg (serum lipoproteins; [4]): -85%
- change in vivo at 10 mg/kg (serum lipoproteins; [5]): -73%
- change in vivo at 10 mg/kg (serum lipoproteins; [6]): -68%
- change in vivo at 30 mg/kg (serum lipoproteins; [2]): -76%
- change in vivo at 30 mg/kg (serum lipoproteins; [3]): -49%
- change in vivo at 30 mg/kg (serum lipoproteins; [4]): -100%
- change in vivo at 30 mg/kg (serum lipoproteins; [5]): -39%
- change in vivo at 30 mg/kg (serum lipoproteins; [6]): -80%
- solubility [1, 8]: 10.1 mg/mL

SMILES: CC1(C)CN(c2ncc(C(=O)Nc3cccc(C(F)(F)F)c3)c(N)n2)C(=O)N1 [No. 1 (Table 1), hydrochloride of 4-amino-2-(4,4-dimethylimidazolidin-2-on-1-yl)pyrimidine-5-carboxylic acid N-(3-trifluoromethylphenyl)amide, reference compound]
- solubility ([1]; 23° C., read-out: 1 part by mass dissolves in parts of water (converted)): 0.4 mg/mL
- solubility ([1]; 23° C., read-out: solution that can be prepared in water): 930 µM
- solubility [1, 9]: 0.4 mg/mL
- solubility [1, 10]: 930 µM

SMILES: CCN(C(=O)c1cnc(N2CC(C)NC2=O)nc1N)c1cccc(C(F)(F)F)c1 (stereo not shown) [Example 58, 4-amino-2-(4-methyl-2-oxo-1-imidazolidinyl)pyrimidine-5-carboxylic acid N-ethyl-N-(3-trifluoromethylphenyl)amide hydrochloride]
- change in vivo at 30 mg/kg (serum lipoproteins; [2]): 46%
- change in vivo at 30 mg/kg (serum lipoproteins; [3]): -25%
- change in vivo at 30 mg/kg (serum lipoproteins; [4]): -59%
- change in vivo at 30 mg/kg (serum lipoproteins; [5]): -22%
- change in vivo at 30 mg/kg (serum lipoproteins; [6]): -40%
- 1 part by mass dissolves in ... parts by H2O [1, 7]: 6.8 parts by H2 O
- solubility [1, 8]: 128 mg/mL

SMILES: CC(C)N(C(=O)c1cnc(N2CC(C)(C)NC2=O)nc1N)c1ccc(F)c(C(F)(F)F)c1 [Example 35]
- change in vivo at 30 mg/kg (serum lipoproteins; [2]): 46%
- change in vivo at 30 mg/kg (serum lipoproteins; [3]): -35%
- change in vivo at 30 mg/kg (serum lipoproteins; [4]): -79%
- change in vivo at 30 mg/kg (serum lipoproteins; [5]): -69%
- change in vivo at 30 mg/kg (serum lipoproteins; [6]): -55%
- 1 part by mass dissolves in ... parts by H2O [1, 7]: 28.6 parts by H2 O
- solubility [1, 8]: 33.8 mg/mL

SMILES: CCCC1(C)CN(c2ncc(C(=O)Nc3cc(C(F)(F)F)ccc3Cl)c(N)n2)C(=O)N1 (stereo not shown) [No. 8 (Table 1), reference compound]
- 1 part by mass dissolves in ... parts of H2O [1, 11]: 781 parts of H2 O
- solubility [1, 9]: 1.3 mg/mL
- solubility [1, 10]: 2590 µM

SMILES: CC1(C)CN(c2ncc(C(=O)Nc3cccc(C(F)(F)F)c3)c(N)n2)C(=O)N1 [No. 2 (Table 1), reference compound]
- Solubility in water, Molarity × 10^-3 [1, 11]: 0.90 Molarity × 10^-3

SMILES: CCN(C(=O)c1cnc(N2CC(C)(C)NC2=O)nc1N)c1cc(C(F)(F)F)ccc1F [Example 60, 4-amino-2-(4,4-dimethyl-2-oxo-1-imidazolidinyl)pyrimidine-5-carboxylic acid N-ethyl-N-(2-fluoro-5-trifluoromethylphenyl)amide nitrate]
- 1 part by mass dissolves in ... parts by H2O [1, 12]: 57.5 parts by H2 O
- Solubility in water, Concentration in % by wt. [1, 12]: 1.71 % by wt.
- solubility ([1]; temperature not stated, read-out: soluble in a concentration in water): 17 mg/mL

SMILES: CC1(C)CN(c2ncc(C(=O)Nc3ccc(Cl)c(C(F)(F)F)c3)c(N)n2)C(=O)N1 [No. 5 (Table 1), reference compound]
- solubility [1, 9]: 1 mg/mL
- solubility [1, 10]: 2030 µM

SMILES: C=CC1CN(c2ncc(C(=O)N(C)c3cccc(C(F)(F)F)c3)c(N)n2)C(=O)N1 (stereo not shown) [Example 72, 4-amino-2-(4-vinyl-2-oxo-1-imidazolidinyl)pyrimidine-5-carboxylic acid N-methyl-N-(3-trifluoromethylphenyl)amide hydrochloride]
- 1 part by mass dissolves in ... parts by H2O [1, 7]: < 9 parts by H2 O
- solubility [1, 8]: > 100 mg/mL

SMILES: CC1(C)CN(c2ncc(C(=O)N(c3cccc(C(F)(F)F)c3)C3CCCC3)c(N)n2)C(=O)N1 [No. 8 (Table 2)]
- 1 part by mass dissolves in ... parts by H2O [1, 7]: 60.6 parts by H2 O
- solubility [1, 8]: 16.2 mg/mL

SMILES: CCN(C(=O)c1cnc(N2CC(C)(C)NC2=O)nc1N)c1cccc(C(F)(F)F)c1 [Example 1, 4-amino-2-(4,4-dimethyl-2-oxo-1-imidazolidinyl)pyrimidine-5-carboxylic acid N-ethyl-N-(3-trifluoromethylphenyl)amide]
- 1 part by mass dissolves in ... parts by H2O [1, 7]: 13.5 parts by H2 O
- solubility [1, 8]: 68.9 mg/mL

SMILES: CCCC1(C)CN(c2ncc(C(=O)Nc3cccc(C(F)(F)F)c3)c(N)n2)C(=O)N1 (stereo not shown) [No. 10 (Table 1), reference compound]
- 1 part by mass dissolves in ... parts of H2O [1, 11]: 255 parts of H2 O
- solubility [1, 9]: 3.9 mg/mL
- solubility [1, 10]: 8540 µM

SMILES: CC1NC(=O)N(c2ncc(C(=O)Nc3cccc(C(F)(F)F)c3)c(N)n2)C1C (stereo not shown) [No. 11 (Table 1), reference compound]
- 1 part by mass dissolves in ... parts of H2O [1, 11]: 277 parts of H2 O
- solubility [1, 9]: 3.6 mg/mL
- solubility [1, 10]: 8380 µM

SMILES: CC(C)CC(C)N(C(=O)c1cnc(N2CC(C)(C)NC2=O)nc1N)c1cccc(C(F)(F)F)c1 (stereo not shown) [Example 38]
- 1 part by mass dissolves in ... parts by H2O [1, 7]: 15.3 parts by H2 O
- solubility [1, 8]: 61.3 mg/mL

SMILES: CC(C)N(C(=O)c1cnc(N2CC(C)(C)NC2=O)nc1N)c1cccc(C(F)(F)F)c1 [Example 3, 4-amino-2-(4,4-dimethyl-2-oxo-1-imidazolidinyl)pyrimidine-5-carboxylic acid N-isopropyl-N-(3-trifluoromethylphenyl)amide]
- 1 part by mass dissolves in ... parts by H2O [1, 7]: 24.7 parts by H2 O
- solubility [1, 8]: 38.9 mg/mL

From US5571816A, “Pyrimidines” (Hoechst Aktiengesellschaft, priority 1992, dated 1996)
